One block for each molecule: values may come before it.
How the values were obtained:
RIPK2 = molecular target: T1, RIPK2 (Homo sapiens, UniProt O43353); test: target protein degradation by immunoblotting (Experimental Example 6); type: cell-based; conditions: THP-1 cell line, 24 hours
T1 construct: as cell lines primarily expressing the target protein; endogenous in cells; host or cells: THP-1
Description: (§1) In order to evaluate the target proteion degradation efficacy by Examples 14 to 33 according the disclosure, the following experiment was conducted.
(§2) First, as cell lines primarily expressing the target protein, Human kidney-derived cancer cells, HEK293T (ATCC, CRL-3216), human prostate-derived cancer cells, LNcap (Korean Cell Line Bank, Korean Cell Line Research Foundation, KCLB No. 80018), mouse embryonic fibroblast, MEF (ATCC, SCRC-1008), human cervical cancer cells, HeLa (Korean Cell Line Bank, Korean Cell Line Research Foundation, KCLB No. 10002), human blood-derived cells, K562 (Korean Cell Line Bank, Korean Cell Line Research Foundation, KCLB No. 10243), human blood-derived cells, THP-1 (Korean Cell Line Bank, Korean Cell Line Research Foundation, KCLB No. 40202), human lung-derived cancer cells, A549 (Korean Cell Line Bank, Korean Cell Line Research Foundation, KCLB No. 10185), human breast-derived cancer cells, MCF7 (Korean Cell Line Bank, Korean Cell Line Research Foundation, KCLB No. 30022), human neuroblastoma, SH-SY5Y cell lines (Korean Cell Line Bank, Korean Cell Line Research Foundation, KCLB No. 22266), human pancreatic cancer cells, PANC-1 (Korean Cell Line Bank, Korean Cell Line Research Foundation, KCLB No. 21469) were cultured, respectively, in an incubator maintained at 5% carbon dioxide, using DMEM containing 10% FBS and 1% streptomycin/penicillin, RPMI1640, or MEM medium, and then the respective cells were dispensed in 12-well plate. Additional incubation was performed for 24 hours to ensure that each cell completely fixed to the surface of the plate.
(§3) In order to confirm whether Compounds A to W of Examples 14 to 33 degrade the target protein respectively, the cultured cells were treated with the compound of each example for 24 hours and then collected.
(§4) In this case, HEK293T, which is human kidney-derived cancer cells, LNcap, which is human prostate-derived cancer cells, and MEF cell line, which is mouse embryonic fibroblasts, were treated with Example 14 (Compound A). HEK293T, which is human kidney-derived cancer cells, was treated with Example 15 (Compound B). HEK293T cell line, which is human kidney-derived cancer cells, and HeLa cell line, which is cervical-derived cancer cells, were treated with Example 16 (Compound C). HEK293T cell line, which is human kidney-derived cancer cells, was treated with Example 17 (Compound D). K562 cell line, which is human blood-derived cells, was treated with Example 18 (Compound E). HEK293T cell line, which is human kidney-derived cancer cells, was treated with Example 19 (Compound F). THP-1 cell line, which is human blood-derived cells, was treated with Example 20 (Compound G). A549 cell line, which is human lung-derived cancer cells, was treated with Example 21 (Compound H). A549 cell line, which is human lung-derived cancer cells, was treated with Example 22 (Compound I). MCF7 cell line, which is human breast-derived cancer cells, was treated with Example 23 (Compound J). HEK293T cell line, which is […], was treated with Example 24 (Compound L). SH-SY5Y, which is human neuroblastoma, and HeLa cell line, which is cervical-derived cancer cells, were treated with Example 25 (Compound M). THP-1 cell line, which is human blood-derived cells, was treated with Example 26 (Compound P). SH-SY5Y, which is human neuroblastoma, and HeLa cell line, which is cervical-derived cancer cells, were treated with Example 27 (Compound Q). SH-SY5Y, which is human neuroblastoma, and HeLa cell line, which is cervical-derived cancer cells, were treated with Example 28 (Compound R). HeLa cell line, a human cervical-derived cancer cell, was treated with Example 29 (Compound S). SH-SY5Y cell line, which is human neuroblastoma, was treated with Example 30 (Compound T). SH-SY5Y cell line, which is human neuroblastoma, was treated with Example 31 (Compound U). PANC-1 cell line, which is human pancreatic-derived cancer cells, was treated with Example 32 (Compound V). […]

Cyclin D1 = test: as above; type: cell-based, human; conditions: A549 cell line, 24 hours
Description: as §1, §2, §3, §4

STAT3 = molecular target: T2, STAT3 (Homo sapiens, UniProt P40763); test: as above; type: cell-based; conditions: A549 cell line, 24 hours
T2 construct: as cell lines primarily expressing the target protein; endogenous in cells; host or cells: A549
Description: as §1, §2, §3, §4

p-STAT3 = molecular target: T3, p-STAT3 (Homo sapiens, UniProt P40763); test: as above; type: cell-based; conditions: A549 cell line, 24 hours
T3 construct: endogenous in cells; host or cells: A549
Description: as §1, §2, §3, §4

Tau = test: as above; type: cell-based, human; conditions: 24 hours
Description: as §1, §2, §3, §4

Desmin Mut(L385P) = molecular target: T4, Desmin Mut(L385P) (Homo sapiens, UniProt P17661, L385P); test: as above; type: cell-based; conditions: 24 hours
T4 construct: expressed in transfected cells; host or cells: HeLa (Compound S); SH-SY5Y or HeLa (Compounds M, Q, R)
Description: as §1, §2, §3, §4

α-synuclein(A53T) = molecular target: T5, α-synuclein(A53T) (Homo sapiens, UniProt P37840, A53T); test: as above; type: cell-based; conditions: 24 hours
T5 construct: expressed in transfected cells; host or cells: SH-SY5Y (Compound U); SH-SY5Y or HeLa (Compound M)
Description: as §1, §2, §3, §4

p62 protein = molecular target: T6, p62 protein (Homo sapiens, UniProt Q13501); test: oligomerization activity of p62 protein in cultured cells by immunoblotting; type: cell-based; parameters: dose or concentration left out as unconfirmed; conditions: HEK293 cell line, 2 hr, unlike DMSO control
T6 construct: endogenous in cells; host or cells: HEK293
Description: In order to evaluate the oligomerization activity efficacy of p62 protein according to examples of the disclosure, HEK293 cell line, which is human embryonic kidney-derived cell, was collected. The cell lines were treated with Example 3 (PBA 1104), Example 4 (PBA 1105), Example 5 (Anle F105), Example 8 (PHTPP 1304), Example 11 (BTA-1 1104), Example 12 (Curcumin 1204), Example 1 (ATC 1105), Example 2 (ATC 1104), Example 10 (Resv 1105), Example 13 (Rilu 204) according to the examples, YTK-1105 compound, which is an autophagy targeting ligand compound as a comparative example, and DMSO as a control […], 2 hr, respectively.
In order to measure intracellular p62 protein activation and oligomerization in cells according to the treatment with these compounds, the respective cells were dispensed into a 100 pi dish. The cells were collected after further culturing for 24 hours so that the cells were completely attached to the surface of the plate. 100 μl of lysis buffer (20 mM Tris (pH 7.4), 150 mM NaCl, 1% Triton X-100, 2 mM NaF, 2 mM EDTA, 2 mM beta-glycerophosphate, 5 mM sodium orthovanadate, 1 mM PMSF, leupeptin, aproteinin) were injected into each sample and the cells were lysed. Based on the measured total protein concentration, each sample was treated with test compounds at room temperature for 2 hours, and then a sample buffer was added and allowed to react at 95° C. for 10 minutes. […]

[1] = SH-SY5Y and HeLa cell lines treated

T4 sequence (P17661 whole entry L385P): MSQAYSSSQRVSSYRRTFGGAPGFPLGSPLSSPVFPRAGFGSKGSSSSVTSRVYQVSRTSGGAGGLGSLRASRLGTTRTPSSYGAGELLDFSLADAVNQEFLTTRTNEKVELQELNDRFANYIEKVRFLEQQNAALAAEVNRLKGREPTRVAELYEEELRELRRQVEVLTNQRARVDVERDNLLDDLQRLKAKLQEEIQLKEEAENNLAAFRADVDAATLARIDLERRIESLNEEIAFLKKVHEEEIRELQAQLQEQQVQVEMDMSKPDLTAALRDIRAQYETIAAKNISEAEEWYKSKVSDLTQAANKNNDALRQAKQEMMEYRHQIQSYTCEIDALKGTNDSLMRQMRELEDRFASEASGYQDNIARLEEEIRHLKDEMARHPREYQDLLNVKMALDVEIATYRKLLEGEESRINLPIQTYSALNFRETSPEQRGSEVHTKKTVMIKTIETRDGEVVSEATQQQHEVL
T6 sequence (Q13501 whole entry): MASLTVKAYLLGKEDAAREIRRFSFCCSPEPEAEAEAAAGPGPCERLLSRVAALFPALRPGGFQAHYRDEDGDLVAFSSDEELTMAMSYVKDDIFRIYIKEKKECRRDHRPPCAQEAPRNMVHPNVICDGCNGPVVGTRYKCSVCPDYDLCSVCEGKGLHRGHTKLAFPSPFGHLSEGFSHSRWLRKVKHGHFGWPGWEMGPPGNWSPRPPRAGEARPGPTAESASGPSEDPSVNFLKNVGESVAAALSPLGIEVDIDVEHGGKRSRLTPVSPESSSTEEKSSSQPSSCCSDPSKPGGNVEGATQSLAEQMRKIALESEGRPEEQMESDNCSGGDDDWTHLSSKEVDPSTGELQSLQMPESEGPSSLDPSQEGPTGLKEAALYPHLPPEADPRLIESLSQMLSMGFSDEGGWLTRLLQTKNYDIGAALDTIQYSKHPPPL
T3 sequence (P40763 whole entry): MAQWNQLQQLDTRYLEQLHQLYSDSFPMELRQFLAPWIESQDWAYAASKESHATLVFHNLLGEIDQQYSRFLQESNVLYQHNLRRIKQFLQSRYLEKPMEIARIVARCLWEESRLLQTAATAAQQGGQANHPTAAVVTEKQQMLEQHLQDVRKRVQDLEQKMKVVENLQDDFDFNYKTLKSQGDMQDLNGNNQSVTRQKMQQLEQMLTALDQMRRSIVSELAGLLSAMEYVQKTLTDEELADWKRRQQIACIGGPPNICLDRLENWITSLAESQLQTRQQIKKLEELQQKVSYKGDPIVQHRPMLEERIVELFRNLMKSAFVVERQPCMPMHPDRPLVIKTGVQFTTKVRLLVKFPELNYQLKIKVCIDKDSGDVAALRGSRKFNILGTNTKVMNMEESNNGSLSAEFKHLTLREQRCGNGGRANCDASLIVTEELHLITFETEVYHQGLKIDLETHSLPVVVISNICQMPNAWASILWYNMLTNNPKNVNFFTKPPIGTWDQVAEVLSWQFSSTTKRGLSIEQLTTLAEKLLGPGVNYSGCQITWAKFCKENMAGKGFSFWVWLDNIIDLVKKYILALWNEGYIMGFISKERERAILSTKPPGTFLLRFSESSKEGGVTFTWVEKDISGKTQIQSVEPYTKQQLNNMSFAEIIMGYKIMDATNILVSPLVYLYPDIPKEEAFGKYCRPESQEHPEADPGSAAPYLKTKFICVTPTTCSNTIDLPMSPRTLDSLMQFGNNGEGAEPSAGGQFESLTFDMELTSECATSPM
T2 sequence (P40763 whole entry): as above
T1 sequence (O43353 whole entry): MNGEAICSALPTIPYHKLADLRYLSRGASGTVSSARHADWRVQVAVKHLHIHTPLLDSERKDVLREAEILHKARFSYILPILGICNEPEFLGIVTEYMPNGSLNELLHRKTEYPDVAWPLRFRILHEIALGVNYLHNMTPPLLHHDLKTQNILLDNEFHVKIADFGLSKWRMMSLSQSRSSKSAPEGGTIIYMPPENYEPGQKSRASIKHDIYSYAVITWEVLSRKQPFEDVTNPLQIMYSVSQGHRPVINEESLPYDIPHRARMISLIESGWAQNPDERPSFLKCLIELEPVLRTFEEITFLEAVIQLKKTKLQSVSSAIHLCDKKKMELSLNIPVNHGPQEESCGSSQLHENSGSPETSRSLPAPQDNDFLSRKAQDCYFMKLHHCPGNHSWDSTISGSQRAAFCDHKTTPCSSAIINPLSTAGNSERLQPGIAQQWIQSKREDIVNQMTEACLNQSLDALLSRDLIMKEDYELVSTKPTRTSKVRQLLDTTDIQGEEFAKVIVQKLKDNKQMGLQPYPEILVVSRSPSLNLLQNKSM

- degradation of target protein RIPK2 (decrease in level vs Control) (RIPK2): can be degraded
SMILES: CC(C)(C)S(=O)(=O)c1cc2c(Nc3ccc4scnc4c3)ncnc2cc1OCCNCCOCCOCCNCc1cccc(OCc2ccccc2)c1 [Example 20, N-(7-((1-(3-(benzyloxy)phenyl)-5,8-dioxa-2,11-diazatridecan-13-yl)oxy)-6-(tert-butylsulfonyl)quinazolin-4-yl)benzo[d]thiazol-5-amine]

SMILES: NC(=O)CC[C@H](NC(=O)[C@@H]1CC[C@@H]2CCN(C(=O)CCCOCCOCCOCCOCCNC[C@@H](O)COc3ccc(OCc4ccc(F)cc4)c(OCc4ccc(F)cc4)c3)C[C@H](NC(=O)c3cc4cc(C(F)(F)P(=O)(O)O)ccc4[nH]3)C(=O)N21)C(=O)NC(c1ccccc1)c1ccccc1 [Example 21, ((2-(((5S,8S,10aR)-8-(((S)-5-amino-1-(benzhydrylamino)-1,5-dioxopentan-2-yl)carbamoyl)-3-((R)-1-(3,4-bis((4-fluorobenzyl)oxy)phenoxy)-2-hydroxy-7,10,13,16-tetraoxa-4-azaicosan-20-oyl)-6-oxodecahydropyrrolo[1,2-a][1,5]diazocin-5-yl)carbamoyl)-1H-indol-5-yl)difluoromethyl)phosphonic acid]
- degradation of target protein Cyclin D1 (decrease in level vs Control) (Cyclin D1): can be degraded
- degradation of target protein STAT3 (decrease in level vs Control) (STAT3): can be degraded
- degradation of target protein p-STAT3 (decrease in level vs Control) (p-STAT3): can be degraded

SMILES: NC(=O)CC[C@H](NC(=O)[C@@H]1CC[C@@H]2CCN(C(=O)CCCOCCOCCOCCOCCNCc3ccc(OCc4ccccc4)c(OCc4ccccc4)c3)C[C@H](NC(=O)c3cc4cc(C(F)(F)P(=O)(O)O)ccc4[nH]3)C(=O)N21)C(=O)NC(c1ccccc1)c1ccccc1 [Example 22, ((2-(((5S,8S,10aR)-8-(((S)-5-amino-1-(benzhydrylamino)-1,5-dioxopentan-2-yl)carbamoyl)-3-(1-(3,4-bis(benzyloxy)phenyl)-5,8,11,14-tetraoxa-2-azaoctadecan-18-oyl)-6-oxodecahydropyrrolo[1,2-a][1,5]diazocin-5-yl)carbamoyl)-1H-indol-5-yl)difluoromethyl)phosphonic acid]
- degradation of target protein Cyclin D1 (decrease in level vs Control) (Cyclin D1): can be degraded
- degradation of target protein STAT3 (decrease in level vs Control) (STAT3): can be degraded
- degradation of target protein p-STAT3 (decrease in level vs Control) (p-STAT3): can be degraded

- degradation of target protein Desmin Mut(L385P) (decrease in level vs Control) (Desmin Mut(L385P); [1]): can be degraded
- degradation of target protein α-synuclein(A53T) (decrease in level vs Control) (α-synuclein(A53T); [1]): can be degraded
SMILES: O=C(c1cc(-c2cc3c(cc2C(=O)N2Cc4ccccc4C[C@H]2CN2CCN(CCOCCOCCOCCOCCNCc4ccc(OCc5ccccc5)c(OCCc5ccccc5)c4)CC2)OCO3)n2c1CCCC2)N(c1ccccc1)c1ccc(O)cc1 [Example 25, (S)-3-(6-(3-((4-(1-(4-(benzyloxy)-3-phenethoxyphenyl)-5,8,11,14-tetraoxa-2-azahexadecan-16-yl)piperazin-1-yl)methyl)-1,2,3,4-tetrahydroisoquinoline-2-carbonyl)benzo[d][1,3]dioxol-5-yl)-N-(4-hydroxyphenyl)-N-phenyl-5,6,7,8-tetrahydroindolizine-1-carboxamide]
- degradation of target protein Tau (decrease in level vs Control) (Tau; [1]): can be degraded

- degradation of target protein RIPK2 (decrease in level vs Control) (RIPK2): can be degraded
SMILES: CC(C)(C)S(=O)(=O)c1cc2c(Nc3ccc4scnc4c3)ncnc2cc1OCCNCCOCCOCCOCCOCCOCCNC[C@@H](O)COc1ccc(OCc2ccc(F)cc2)c(OCc2ccc(F)cc2)c1 [Example 26, (R)-1-((4-(benzo[d]thiazol-5-ylamino)-6-(tert-butylsulfonyl)quinazolin-7-yl)oxy)-24-(3,4-bis((4-fluorobenzyl)oxy)phenoxy)-6,9,12,15,18-pentaoxa-3,21-diazatetracosan-23-ol]

- degradation of target protein Desmin Mut(L385P) (decrease in level vs Control) (Desmin Mut(L385P); [1]): can be degraded
SMILES: O=C(CCCc1ccccc1)NCCOCCOCCOCCOCCOCCNCc1ccc(OCc2ccccc2)c(OCc2ccccc2)c1 [Example 27, N-(1-(3,4-bis(benzyloxy)phenyl)-5,8,11,14,17-pentaoxa-2-azanonadecan-19-yl)-4-phenylbutanamide]
- degradation of target protein Tau (decrease in level vs Control) (Tau; [1]): can be degraded

- degradation of target protein Desmin Mut(L385P) (decrease in level vs Control) (Desmin Mut(L385P); [1]): can be degraded
SMILES: O=C(CCCc1ccccc1)NCCOCCOCCOCCOCCOCCOCCOCCNCc1ccc(OCc2ccccc2)c(OCc2ccccc2)c1 [Example 28, N-(1-(3,4-bis(benzyloxy)phenyl)-5,8,11,14,17,20,23-heptaoxa-2-azapentacosan-25-yl)-4-phenylbutanamide]
- degradation of target protein Tau (decrease in level vs Control) (Tau; [1]): can be degraded

- degradation of target protein Desmin Mut(L385P) (decrease in level vs Control) (Desmin Mut(L385P); HeLa cell line): can be degraded
SMILES: O=C(CCCc1ccccc1)NCCOCCOCCOCCNC[C@@H](O)COc1ccc(OCc2ccc(F)cc2)c(OCc2ccc(F)cc2)c1 [Example 29, (R)—N-(15-(3,4-bis((4-fluorobenzyl)oxy)phenoxy)-14-hydroxy-3,6,9-trioxa-12-azapentadecyl)-4-phenylbutanamide]

- degradation of target protein α-syn. Mut(A53T) (decrease in level vs Control) (α-synuclein(A53T); SH-SY5Y cell line): can be degraded
SMILES: CN(CCOCCOCCOCCNCc1ccc(OCc2ccccc2)c(OCc2ccccc2)c1)c1ccc2nc3ccc(=[N+](C)C)cc-3sc2c1 [Example 31, N-(7-((1-(3,4-bis(benzyloxy)phenyl)-5,8,11-trioxa-2-azatridecan-13-yl) (methyl)amino)-3H-phenothiazin-3-ylidene)-N-methylmethanaminium 2,2,2-trifluoroacetate]
- degradation of target protein Tau (decrease in level vs Control) (Tau; SH-SY5Y cell line): can be degraded

- monomer of p62 proteins (p62 protein): decrease
- p62 oligomers and high-molecular aggregates (p62 protein): increase
SMILES: OCCNCc1ccc(OCc2ccccc2)c(OCc2ccccc2)c1 [YTK-1105]

Reference: patent US12383624B2, “Cargo delivery system and composition comprising the same” (SEOUL NATIONAL UNIVERSITY R&DB FOUNDATION, priority 2018, dated 2025)
